The values below come from PubChem BioAssay (NCI).

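Dose response: 5 concentrations. Exposure: 48 h. Format: 96-well plates. Endpoint: linear interpolation; highest concentration if not reached. At the TGI there is no net growth.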

Assay in all cases: inhibition of tumour cell growth, NCI panel, 48 h
Assay [1] has as its system UO-31 renal.
For assay [2], the system named is RPMI-8226 leukemia.
For assay [3], the system named is HOP-92 NSCLC.
The subject of assay [4] is RXF 393 renal.
Assay [5] has as its system HL-60(TB) leukemia.
The test system of assay [6] is HCT-116 colon.
Assay [7] has as its system SR leukemia.
The subject of assay [8] is MDA-N.
Assay [9] relates to M14 melanoma.
The subject of assay [10] is NCI-H226 lung.
Assay [11] has as its system LOX IMVI melanoma.
The test system of assay [12] is CAKI-1 renal.
The subject of assay [13] is MDA-MB-231 breast.

As for `COC(=O)C(NC(=O)c1ccccc1)c1ccco1` (stereo not given), the TGI in assay [1], in assay [2], in assay [3], in [4], in [5] and in assay [6] was greater than 100 µM in each case. The TGI in assay [7], in assay [8], in assay [9] and in [10] was greater than 100 µM each time.
Consider `O=c1[nH]nc(Cc2ccccc2)[nH]1`, for which the TGI in assay [1], in assay [11], in [2], in assay [3], in assay [4] and in assay [5] was greater than 100 µM each time. The TGI in assay [12], in [6], in assay [7], in assay [8], in [9] and in assay [10] was greater than 100 µM in each case.
For `Cc1ccc2c(c1)C1(C)OC(C=CC1=O)O2` (stereo not given), the TGI in assay [1] is 2.36 µM; in assay [11], 1.31 µM; in assay [2], 1.65 µM; in assay [3], 1.48 µM; in [13], 0.745 µM; in [4], 1.56 µM. Also, the TGI in assay [5] came to 0.998 µM; in assay [12], 1.49 µM; in assay [6] it was 0.652 µM; in assay [7], 1.09 µM; in assay [9] it was 1.13 µM; in [10] it was 7.94 µM.
For the compound `O=c1c2cc(S(=O)(=O)O)ccc2nc(COc2ccc(Oc3ccc(Cl)cc3Cl)cc2)n1-c1ccc(Cl)cc1Oc1c(Cl)cccc1Cl`, the TGI in [1] was 37 µM; in assay [11] it was 32.2 µM; in assay [2], 64.7 µM; in [3] it was 47.1 µM; in assay [5], greater than 100 µM; in assay [12] it was greater than 100 µM. In addition, the TGI in assay [6] is 67.8 µM; in assay [7] it was 96.7 µM; in assay [8] it was 99.4 µM; in assay [9], 55.8 µM; in assay [10] it was 49.6 µM.
In the case of `CC1(C)CC(=O)C(/C=N/c2nc(-c3ccccc3)cs2)=C(O)C1`, the TGI in [1] was greater than 100 µM; in assay [11] it was greater than 100 µM; in assay [3] it was greater than 100 µM; in assay [13], 96.8 µM; in assay [5] it was greater than 100 µM; in assay [6], greater than 100 µM. The TGI in assay [8], in [9] and in assay [10] was greater than 100 µM each time.
Take `COc1ccc(C2=Nn3c(nnc(Cc4ccc(Cl)cc4)c3=O)SC2)cc1`: the TGI in [1], in assay [11], in [2], in assay [3], in assay [13] and in assay [4] was greater than 100 µM throughout. Further, the TGI in assay [5] was greater than 100 µM; in [12], greater than 100 µM; in [6], greater than 100 µM; in assay [9] it was 91 µM; in assay [10] it was greater than 100 µM.
As to `CN(C)/C=N/S(=O)(=O)c1nn2c(C=O)c(-c3ccc(Cl)cc3)nc2s1`, the TGI in assay [1] worked out at 2.18 µM; in assay [11], 2.85 µM; in assay [2], 4.22 µM; in assay [3] it was 7.17 µM; in [13], 7.77 µM; in [4], 3.37 µM. For the same compound, the TGI in [12] amounted to 2.58 µM; in assay [6] it was 2.18 µM; in assay [7], 3.4 µM; in assay [9], 2.17 µM; in assay [10], 9.86 µM.
For `NC(N)=N/N=C/c1c(-c2cccc([N+](=O)[O-])c2)nc2n1CCS2`, the TGI in assay [1] is 30.6 µM; in assay [11] it was 73.1 µM; in assay [2], greater than 100 µM; in assay [3] it was 39.7 µM; in assay [13], 44.5 µM; in [4], 36 µM. Also, the TGI was 45.6 µM in assay [5]; 68.4 µM in assay [12]; greater than 100 µM in assay [6]; 34.9 µM in assay [7]; 60 µM in [9]; 39 µM in [10].
For the compound `O=C1C=CC=C/C1=C1\N=C(c2ccccc2OCC(=O)c2ccc(Br)cc2)SS1`, the TGI in assay [1], in [11], in assay [2], in assay [3], in assay [4] and in [5] was greater than 100 µM in each case. Further, the TGI in assay [12], in [6], in [8], in assay [9] and in [10] was greater than 100 µM each time.
With `CC(=O)N[C@@H](Cc1ccc(O)cn1)C(=O)NCc1cccc(Cl)c1`, the TGI in assay [1], in [11], in assay [2], in assay [4], in assay [5] and in assay [12] was greater than 100 µM in each case. Moreover, the TGI in assay [6], in assay [7], in [8], in [9] and in [10] was greater than 100 µM each time.
